These results are taken from paper PMC11784183, “Identification of an antibiotic from an HTS targeting EF-Tu:tRNA interaction: a prospective topical treatment for MRSA skin infections” (Applied and Environmental Microbiology, 2024).

The experiment relates to S. aureus USA300 subcutaneous infection. Briefly: Mouse skin infection model, topical ointment. In kind it is in vivo, mice. Particulars: topical ointment daily.

SMILES strings stand for the structures.

In the case of `C/C(=C\C(=O)OCCCCCCCCC(=O)O)C[C@@H]1OC[C@H](C[C@@H]2O[C@H]2[C@@H](C)[C@H](C)O)[C@@H](O)[C@H]1O` [mupirocin, reference compound], for the setting “5 days, vs untreated control (ointment without drug)”, the “dermonecrosis as a result of S. aureus infection (area over time)” value is “not having a significant effect on dermonecrosis”. For the same compound, the “bacterial burden in punch biopsies” value (day 5, vs untreated control) is “significantly reduced the bacterial burden”.
